From ChEMBL document CHEMBL3991601, “The target landscape of clinical kinase drugs” (Science, 2017)
The source made the active and inactive calls. For most assays here, no stated cut-off is given here; in the data, actives have a measured Kd and inactives only a lower limit.

Experiments:
LIM domain kinase 2 = LIM domain kinase 2 (Homo sapiens, UniProt P53671)
[1] = target: Tyrosine-protein kinase CSK (Homo sapiens, UniProt P41240)
[2] = target: T1, Membrane-associated tyrosine- and threonine-specific cdc2-inhibitory kinase (Homo sapiens, UniProt Q99640)
T1 sequence (Q99640 whole entry): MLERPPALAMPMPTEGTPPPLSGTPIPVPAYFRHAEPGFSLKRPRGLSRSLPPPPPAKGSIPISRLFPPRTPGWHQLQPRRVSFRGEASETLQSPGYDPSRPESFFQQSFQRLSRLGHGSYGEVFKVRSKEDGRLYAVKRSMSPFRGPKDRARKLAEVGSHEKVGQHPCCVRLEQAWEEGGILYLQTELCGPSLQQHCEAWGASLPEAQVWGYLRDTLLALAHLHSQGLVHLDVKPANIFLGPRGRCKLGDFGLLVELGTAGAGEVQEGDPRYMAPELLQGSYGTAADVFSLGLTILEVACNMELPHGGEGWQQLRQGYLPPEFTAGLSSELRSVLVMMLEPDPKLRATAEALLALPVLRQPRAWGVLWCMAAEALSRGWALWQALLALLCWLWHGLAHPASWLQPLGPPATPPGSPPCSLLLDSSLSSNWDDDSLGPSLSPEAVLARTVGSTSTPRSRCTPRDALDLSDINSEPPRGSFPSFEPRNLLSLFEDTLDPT

[3] = target: T2, NUAK family SNF1-like kinase 2 (Homo sapiens, UniProt Q9H093)
T2 sequence (Q9H093 whole entry): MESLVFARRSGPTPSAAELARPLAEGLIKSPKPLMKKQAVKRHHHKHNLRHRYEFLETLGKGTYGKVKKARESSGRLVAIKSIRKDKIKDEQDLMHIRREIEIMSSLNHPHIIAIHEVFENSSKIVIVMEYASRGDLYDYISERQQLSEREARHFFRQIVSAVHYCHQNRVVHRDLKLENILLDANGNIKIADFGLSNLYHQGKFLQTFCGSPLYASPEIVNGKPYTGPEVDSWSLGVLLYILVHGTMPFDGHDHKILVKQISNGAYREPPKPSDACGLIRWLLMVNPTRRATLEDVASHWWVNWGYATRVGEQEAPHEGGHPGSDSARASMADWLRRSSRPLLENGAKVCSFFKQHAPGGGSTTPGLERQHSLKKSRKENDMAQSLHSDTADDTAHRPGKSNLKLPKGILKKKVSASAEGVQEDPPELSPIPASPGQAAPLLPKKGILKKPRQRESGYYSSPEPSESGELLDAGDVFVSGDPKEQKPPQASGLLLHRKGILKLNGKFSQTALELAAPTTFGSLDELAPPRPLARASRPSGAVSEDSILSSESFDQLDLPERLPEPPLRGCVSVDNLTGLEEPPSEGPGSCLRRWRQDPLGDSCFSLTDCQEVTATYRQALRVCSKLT

[4] = target: Tyrosine-protein kinase Lyn (Homo sapiens, UniProt P07948)
Chain of Tyrosine-protein kinase Lyn (P07948 whole entry): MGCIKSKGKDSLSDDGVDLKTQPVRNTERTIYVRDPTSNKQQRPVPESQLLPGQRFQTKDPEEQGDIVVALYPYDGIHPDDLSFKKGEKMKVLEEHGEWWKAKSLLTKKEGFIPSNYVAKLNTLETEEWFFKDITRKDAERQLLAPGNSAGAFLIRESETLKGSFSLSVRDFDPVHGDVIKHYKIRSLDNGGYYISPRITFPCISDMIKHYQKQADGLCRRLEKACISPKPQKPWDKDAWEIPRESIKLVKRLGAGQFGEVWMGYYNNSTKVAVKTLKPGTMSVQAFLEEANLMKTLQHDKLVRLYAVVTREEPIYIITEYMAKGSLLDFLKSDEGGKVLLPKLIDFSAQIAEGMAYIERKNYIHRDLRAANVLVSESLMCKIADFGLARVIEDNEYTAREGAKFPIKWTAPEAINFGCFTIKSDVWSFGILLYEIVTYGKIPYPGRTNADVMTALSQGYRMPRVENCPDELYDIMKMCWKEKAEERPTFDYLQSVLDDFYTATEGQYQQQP

Deoxycytidine kinase = Deoxycytidine kinase (Homo sapiens, UniProt P27707)
Chain of Deoxycytidine kinase (P27707 whole entry): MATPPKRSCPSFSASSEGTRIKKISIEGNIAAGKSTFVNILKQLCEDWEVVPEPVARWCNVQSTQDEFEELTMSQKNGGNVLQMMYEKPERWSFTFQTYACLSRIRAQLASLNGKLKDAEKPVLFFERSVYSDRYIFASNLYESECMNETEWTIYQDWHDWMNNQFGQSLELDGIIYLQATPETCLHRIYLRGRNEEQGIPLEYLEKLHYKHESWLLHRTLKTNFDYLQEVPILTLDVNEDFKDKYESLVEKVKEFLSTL

[5] = target: Cyclin-dependent kinase 3 (Homo sapiens, UniProt Q00526)
Chain of Cyclin-dependent kinase 3 (Q00526 whole entry): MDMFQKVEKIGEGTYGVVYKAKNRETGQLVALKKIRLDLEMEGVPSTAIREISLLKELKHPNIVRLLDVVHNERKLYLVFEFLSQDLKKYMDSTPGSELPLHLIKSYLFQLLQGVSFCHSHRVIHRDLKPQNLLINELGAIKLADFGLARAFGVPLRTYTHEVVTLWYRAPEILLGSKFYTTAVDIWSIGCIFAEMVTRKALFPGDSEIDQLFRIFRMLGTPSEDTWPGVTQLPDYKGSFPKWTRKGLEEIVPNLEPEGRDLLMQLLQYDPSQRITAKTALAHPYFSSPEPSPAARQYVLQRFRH

[6] = target: Mitogen-activated protein kinase kinase kinase 4 (Homo sapiens, UniProt Q9Y6R4)
Chain of Mitogen-activated protein kinase kinase kinase 4 (Q9Y6R4 whole entry): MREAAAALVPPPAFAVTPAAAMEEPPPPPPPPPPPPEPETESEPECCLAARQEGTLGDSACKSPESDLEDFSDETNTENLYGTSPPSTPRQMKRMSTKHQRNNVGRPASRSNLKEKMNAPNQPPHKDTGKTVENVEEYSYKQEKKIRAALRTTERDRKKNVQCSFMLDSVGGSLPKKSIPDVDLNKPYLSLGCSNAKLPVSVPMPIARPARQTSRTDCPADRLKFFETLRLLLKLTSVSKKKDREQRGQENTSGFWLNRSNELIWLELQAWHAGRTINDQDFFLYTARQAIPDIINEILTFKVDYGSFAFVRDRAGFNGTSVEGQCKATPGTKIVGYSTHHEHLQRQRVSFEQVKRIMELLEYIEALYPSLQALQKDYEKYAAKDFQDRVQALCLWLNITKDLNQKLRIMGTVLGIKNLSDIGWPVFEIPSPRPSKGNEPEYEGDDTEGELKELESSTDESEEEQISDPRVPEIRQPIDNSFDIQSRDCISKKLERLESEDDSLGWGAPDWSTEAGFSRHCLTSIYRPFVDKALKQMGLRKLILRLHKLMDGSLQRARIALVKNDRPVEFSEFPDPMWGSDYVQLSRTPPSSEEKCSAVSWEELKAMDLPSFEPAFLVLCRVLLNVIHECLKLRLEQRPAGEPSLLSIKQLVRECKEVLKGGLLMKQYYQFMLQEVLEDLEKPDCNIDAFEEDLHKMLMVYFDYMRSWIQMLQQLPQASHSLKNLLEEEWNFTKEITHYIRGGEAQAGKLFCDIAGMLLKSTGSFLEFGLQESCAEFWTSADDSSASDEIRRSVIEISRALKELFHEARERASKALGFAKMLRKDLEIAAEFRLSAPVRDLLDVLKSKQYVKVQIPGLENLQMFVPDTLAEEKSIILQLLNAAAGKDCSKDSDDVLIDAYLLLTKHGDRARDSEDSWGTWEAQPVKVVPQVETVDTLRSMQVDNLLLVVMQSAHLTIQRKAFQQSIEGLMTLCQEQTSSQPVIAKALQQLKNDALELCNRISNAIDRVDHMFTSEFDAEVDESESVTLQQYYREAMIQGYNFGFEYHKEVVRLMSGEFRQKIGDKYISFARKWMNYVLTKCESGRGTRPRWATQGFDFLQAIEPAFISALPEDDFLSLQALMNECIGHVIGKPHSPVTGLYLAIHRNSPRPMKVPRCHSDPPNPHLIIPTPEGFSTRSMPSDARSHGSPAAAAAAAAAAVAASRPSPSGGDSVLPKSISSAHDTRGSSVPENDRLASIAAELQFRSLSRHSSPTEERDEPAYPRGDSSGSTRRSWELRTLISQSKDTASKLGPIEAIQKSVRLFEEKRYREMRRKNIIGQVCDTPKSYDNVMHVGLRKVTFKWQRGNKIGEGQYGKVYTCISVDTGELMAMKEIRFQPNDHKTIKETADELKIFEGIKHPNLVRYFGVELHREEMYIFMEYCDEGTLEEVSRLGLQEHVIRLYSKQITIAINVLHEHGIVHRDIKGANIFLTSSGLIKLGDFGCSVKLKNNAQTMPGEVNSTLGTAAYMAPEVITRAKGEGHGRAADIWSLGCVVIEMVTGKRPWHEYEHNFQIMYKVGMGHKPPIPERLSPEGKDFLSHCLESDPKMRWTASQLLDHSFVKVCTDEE

[7] = target: T3, Serine/threonine-protein kinase 3 (Homo sapiens, UniProt Q13188)
T3 sequence (Q13188 whole entry): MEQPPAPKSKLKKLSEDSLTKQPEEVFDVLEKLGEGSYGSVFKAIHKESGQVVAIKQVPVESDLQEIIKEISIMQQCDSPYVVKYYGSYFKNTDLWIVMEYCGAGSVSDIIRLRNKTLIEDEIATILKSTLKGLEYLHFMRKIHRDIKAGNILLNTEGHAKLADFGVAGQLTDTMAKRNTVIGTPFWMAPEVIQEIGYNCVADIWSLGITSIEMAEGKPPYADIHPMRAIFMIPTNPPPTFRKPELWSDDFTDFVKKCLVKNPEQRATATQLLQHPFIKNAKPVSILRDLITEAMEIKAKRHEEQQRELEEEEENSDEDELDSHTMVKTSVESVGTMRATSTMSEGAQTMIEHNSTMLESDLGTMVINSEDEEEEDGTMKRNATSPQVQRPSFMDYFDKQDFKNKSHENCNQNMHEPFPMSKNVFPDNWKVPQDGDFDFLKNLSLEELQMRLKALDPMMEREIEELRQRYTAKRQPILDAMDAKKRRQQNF

Activin receptor type-1 = target: T4, Activin receptor type-1 (Homo sapiens, UniProt Q04771)
T4 sequence (Q04771 whole entry): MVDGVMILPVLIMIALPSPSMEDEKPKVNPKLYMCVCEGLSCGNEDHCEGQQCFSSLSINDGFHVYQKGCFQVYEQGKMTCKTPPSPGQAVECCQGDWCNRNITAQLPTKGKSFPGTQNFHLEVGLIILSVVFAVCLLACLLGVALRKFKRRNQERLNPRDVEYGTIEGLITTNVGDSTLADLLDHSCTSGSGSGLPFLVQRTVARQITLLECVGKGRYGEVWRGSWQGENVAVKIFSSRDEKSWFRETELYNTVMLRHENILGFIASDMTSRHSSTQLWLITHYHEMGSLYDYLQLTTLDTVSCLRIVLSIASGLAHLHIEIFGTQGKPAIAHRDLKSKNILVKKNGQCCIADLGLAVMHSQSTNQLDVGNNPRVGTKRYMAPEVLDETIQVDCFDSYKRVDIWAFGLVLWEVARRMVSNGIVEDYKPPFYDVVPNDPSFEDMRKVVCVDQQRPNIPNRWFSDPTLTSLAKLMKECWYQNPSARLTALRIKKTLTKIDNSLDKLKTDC

Chain of LIM domain kinase 2 (P53671 whole entry, the tested form may be a part): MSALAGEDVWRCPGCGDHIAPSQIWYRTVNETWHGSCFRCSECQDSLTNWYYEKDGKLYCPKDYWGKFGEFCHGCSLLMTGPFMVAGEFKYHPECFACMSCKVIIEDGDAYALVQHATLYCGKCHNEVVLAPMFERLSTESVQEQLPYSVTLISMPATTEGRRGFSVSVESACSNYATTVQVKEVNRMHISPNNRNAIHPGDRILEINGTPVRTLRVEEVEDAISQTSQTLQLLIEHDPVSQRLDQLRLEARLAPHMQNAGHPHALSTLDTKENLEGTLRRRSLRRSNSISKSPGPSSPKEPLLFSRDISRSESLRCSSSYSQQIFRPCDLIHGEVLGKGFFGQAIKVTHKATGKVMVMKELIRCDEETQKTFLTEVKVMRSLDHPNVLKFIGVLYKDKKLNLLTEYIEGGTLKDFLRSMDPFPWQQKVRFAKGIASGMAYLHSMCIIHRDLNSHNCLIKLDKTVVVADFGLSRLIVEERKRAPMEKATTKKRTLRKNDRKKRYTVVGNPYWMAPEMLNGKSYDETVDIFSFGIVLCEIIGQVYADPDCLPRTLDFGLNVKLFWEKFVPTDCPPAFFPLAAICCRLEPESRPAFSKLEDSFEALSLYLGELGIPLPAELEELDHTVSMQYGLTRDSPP

| Kd (LIM domain kinase 2) | Kd [1] | Kd [2] | Kd [3] | Kd [4] | Kd (Deoxycytidine kinase) | Kd [5] | Kd [6] | Kd [7] | Kd (Activin receptor type-1) | Compound |
| --- | --- | --- | --- | --- | --- | --- | --- | --- | --- | --- |
| > 30 µM (inactive) | > 30 µM (inactive) | > 30 µM (inactive) | > 30 µM (inactive) | 3.63 µM (active) | > 30 µM (inactive) | > 30 µM (inactive) | > 30 µM (inactive) | – | – | CCN(CCCOc1ccc2c(Nc3cc(CC(=O)Nc4cccc(F)c4)n[nH]3)ncnc2c1)CCOP(=O)(O)O [BARASERTIB] |
| > 30 µM (inactive) | > 30 µM (inactive) | > 30 µM (inactive) | – | > 30 µM (inactive) | > 30 µM (inactive) | > 30 µM (inactive) | > 30 µM (inactive) | > 30 µM (inactive) | > 30 µM (inactive) | O=C(NC[C@H](O)CO)c1ccncc1Nc1ccc(I)cc1F [PIMASERTIB] |
| > 30 µM (inactive) | > 30 µM (inactive) | > 30 µM (inactive) | > 30 µM (inactive) | > 30 µM (inactive) | > 30 µM (inactive) | > 30 µM (inactive) | > 30 µM (inactive) | > 30 µM (inactive) | > 30 µM (inactive) | O=C(Nc1ccc(OC(F)(F)F)cc1)c1sccc1NCc1ccnc2ccccc12 [OSI-930] |
| > 30 µM (inactive) | > 30 µM (inactive) | > 30 µM (inactive) | > 30 µM (inactive) | > 30 µM (inactive) | > 30 µM (inactive) | > 30 µM (inactive) | > 30 µM (inactive) | > 30 µM (inactive) | > 30 µM (inactive) | O=C(NOC[C@H](O)CO)c1ccc(F)c(F)c1Nc1ccc(I)cc1F [MIRDAMETINIB] |
| > 30 µM (inactive) | > 30 µM (inactive) | > 30 µM (inactive) | > 30 µM (inactive) | > 30 µM (inactive) | > 30 µM (inactive) | > 30 µM (inactive) | > 30 µM (inactive) | > 30 µM (inactive) | > 30 µM (inactive) | COc1cc(Nc2ncc(F)c(Nc3ccc4c(n3)N(COP(=O)(O)O)C(=O)C(C)(C)O4)n2)cc(OC)c1OC [FOSTAMATINIB] |
| – | – | – | – | – | > 30 µM (inactive) | – | – | – | – | COc1cc2c(Oc3ccc4[nH]c(C)cc4c3F)ncnc2cc1OCCCN1CCCC1 [CEDIRANIB] |
| > 30 µM (inactive) | > 30 µM (inactive) | > 30 µM (inactive) | > 30 µM (inactive) | > 30 µM (inactive) | > 30 µM (inactive) | > 30 µM (inactive) | > 30 µM (inactive) | > 30 µM (inactive) | > 30 µM (inactive) | CNC(=O)c1cc(COc2nnc(Nc3ccc(Cl)cc3)c3ccoc23)ccn1 [TELATINIB] |
| > 30 µM (inactive) | > 30 µM (inactive) | > 30 µM (inactive) | > 30 µM (inactive) | > 30 µM (inactive) | > 30 µM (inactive) | > 30 µM (inactive) | > 30 µM (inactive) | > 30 µM (inactive) | > 30 µM (inactive) | COc1ccc(-c2ccc3ncc4c(c3c2)n(-c2ccc(N3CCNCC3)c(C(F)(F)F)c2)c(=O)n4C)cn1 [BGT-226 FREE BASE] |
| – | – | – | – | – | > 30 µM (inactive) | – | – | – | – | COc1cc2c(N3CCN(C(=O)Nc4ccc(OC(C)C)cc4)CC3)ncnc2cc1OCCCN1CCCCC1 [TANDUTINIB] |
| > 30 µM (inactive) | > 30 µM (inactive) | > 30 µM (inactive) | > 30 µM (inactive) | > 30 µM (inactive) | > 30 µM (inactive) | – | > 30 µM (inactive) | > 30 µM (inactive) | > 30 µM (inactive) | CCN1CCN(Cc2ccc(Nc3ncc(F)c(-c4cc(F)c5nc(C)n(C(C)C)c5c4)n3)nc2)CC1 [ABEMACICLIB] |
| – | – | – | – | – | > 30 µM (inactive) | – | – | – | – | CC1(C)CNc2cc(NC(=O)c3cccnc3NCc3ccncc3)ccc21 [MOTESANIB] |
| – | – | – | – | – | > 30 µM (inactive) | – | – | – | – | Cn1cnc2c(F)c(Nc3ccc(Br)cc3Cl)c(C(=O)NOCCO)cc21 [SELUMETINIB] |
| > 30 µM (inactive) | > 30 µM (inactive) | > 30 µM (inactive) | – | > 30 µM (inactive) | > 30 µM (inactive) | > 30 µM (inactive) | > 30 µM (inactive) | > 30 µM (inactive) | > 30 µM (inactive) | COc1ccc2c(OCc3nnc4ccc(-c5ccccc5)nn34)ccnc2c1 [AMG-208] |
| – | – | – | – | – | > 30 µM (inactive) | – | – | – | – | C[C@@]1(C(=O)Nc2ccc(F)nc2)CCCN1c1nc(Nc2cc(C3CC3)n[nH]2)c2cccn2n1 [BMS-754807] |
| > 30 µM (inactive) | > 30 µM (inactive) | > 30 µM (inactive) | – | > 30 µM (inactive) | > 30 µM (inactive) | > 30 µM (inactive) | > 30 µM (inactive) | > 30 µM (inactive) | > 30 µM (inactive) | Cc1cc(-c2cc(OC(=O)c3ccccc3)ccc2Cl)cc2nnc(Nc3ccc(OCCN4CCCC4)cc3)nc12 [TG100-801] |
| – | – | – | – | – | > 30 µM (inactive) | – | – | – | – | CN(C)C/C=C/C(=O)Nc1cc2c(Nc3ccc(F)c(Cl)c3)ncnc2cc1O[C@H]1CCOC1 [AFATINIB] |

| Compound | Kd (LIM domain kinase 2) | Kd [1] | Kd [2] | Kd [3] | Kd [4] | Kd (Deoxycytidine kinase) | Kd [5] | Kd [6] | Kd [7] | Kd (Activin receptor type-1) |
| --- | --- | --- | --- | --- | --- | --- | --- | --- | --- | --- |
| N#CCNC(=O)c1ccc(-c2ccnc(Nc3ccc(N4CCOCC4)cc3)n2)cc1 [MOMELOTINIB] | > 30 µM (inactive) | > 30 µM (inactive) | > 30 µM (inactive) | > 30 µM (inactive) | – | > 30 µM (inactive) | – | > 30 µM (inactive) | – | > 30 µM (inactive) |
| C=CCn1c(=O)c2cnc(Nc3ccc(N4CCN(C)CC4)cc3)nc2n1-c1cccc(C(C)(C)O)n1 [ADAVOSERTIB] | > 30 µM (inactive) | > 30 µM (inactive) | – | > 30 µM (inactive) | > 30 µM (inactive) | > 30 µM (inactive) | > 30 µM (inactive) | 0.052 µM (active) | – | > 30 µM (inactive) |
| C[C@]1(O)C[C@@H](c2nc(-c3ccc4ccc(-c5ccccc5)nc4c3)c3c(N)nccn32)C1 [LINSITINIB] | > 30 µM (inactive) | > 30 µM (inactive) | > 30 µM (inactive) | > 30 µM (inactive) | – | > 30 µM (inactive) | > 30 µM (inactive) | > 30 µM (inactive) | – | > 30 µM (inactive) |
| O=S(=O)(c1cccc2cnccc12)N1CCCNCC1 [FASUDIL] | > 30 µM (inactive) | > 30 µM (inactive) | > 30 µM (inactive) | > 30 µM (inactive) | > 30 µM (inactive) | > 30 µM (inactive) | > 30 µM (inactive) | > 30 µM (inactive) | – | > 30 µM (inactive) |
| CN(c1ncccc1CNc1nc(Nc2ccc3c(c2)CC(=O)N3)ncc1C(F)(F)F)S(C)(=O)=O [PF-00562271] | > 30 µM (inactive) | > 30 µM (inactive) | > 30 µM (inactive) | > 30 µM (inactive) | – | > 30 µM (inactive) | 3.43 µM (active) | > 30 µM (inactive) | – | – |
